Data from patent publication US20090041753A1, “Cytokine signaling” (priority 2006, published 2009).

System: purified astrocyte cultures
Assay: CXCL1 addition to purified spinal cord astrocyte cultures, CSPG by immunocytochemistry and dot blot
Type: cell-based
Details: CXCL1 0.5 ng/ml, 3 days
Method: Cells were treated with CXCL1 (0.5 ng/ml) for 3 days and assayed for CSPG deposition onto substrate by immunocytochemistry and released into medium. […] GFAP (red), CSPG (green) (FIG. 34) For the culture studies, cultures of spinal cord astrocytes were assayed for basal levels of mRNA expression of CXCL1 and CXCR2 by RT-PCR (FIG. 33). The effect of 3 day CXCL1 protein addition (0.5 ng/ml) on CSPG protein expression was conducted on spinal cord astrocyte cultures as well as by immunocytochemistry and dot blot assays to analyze secreted and bound CSPG (FIG. 34).

CXCL1: soluble secreted chemoattractive cytokine of the ELR positive family of CXC chemokines; preferred receptor CXCR2
CSPG expression (deposition onto substrate, immunocytochemistry): induces CSPG expression | CSPG released into medium (dot blot): increased CSPG | astrocyte morphology: changes morphology
